Measurements taken from US20100285959A1, “HERBICIDAL MIXTURES” (priority 2006, published 2010).

Legend:
giant ragweed (AMBTR) = assay: Test 26 field trial, postemergence; format: in vivo, Ambrosia trifida
Text: (§1) Corn seeds (hybrid ‘Pioneer 31G96’) were planted in mid spring season, 3.8 cm deep in a silt loam soil having 2% organic matter and a pH of 6.6. Plots were 6.1 m long by 3.0 m wide with rows spaced 76 cm apart. Seeds were spaced 15 cm apart within the rows. The field was managed using conventional tillage practices. […] All treatments also included a surfactant. […] Some of the weed species could not be evaluated at every timing. […] Results are the means of the three replicates.

winter wheat (TRZAW) = assay: Test 27 field trial, postemergence; format: in vivo, Triticum aestivum; details: cv. Custer, Triticum aestivum (winter wheat), in vivo
Text: (§2) Wheat seeds (cv. ‘Custer’) were planted in late fall season in a clay loam soil. Plots were 9 m long by 1.8 m wide. The field was managed using conventional tillage practices. […] All treatments also included a surfactant. […] Results are the means of the three replicates.

corn (ZEAMD) = assay: Test 26 field trial, postemergence; format: in vivo, Zea mays ssp. indentata; details: hybrid Pioneer 31G96, Zea mays ssp. indentata (corn), in vivo
Text: as §1

velvetleaf (ABUTH) = assay: Test 26 field trial, postemergence; format: in vivo, Abutilon theophrasti; design: scale not given here
Text: as §1

giant foxtail (SETFA) = assay: Test 26 field trial, postemergence; format: in vivo, Setaria faberi; design: scale not given here
Text: as §1

[1] = test system: common lambsquarters (CHEAL); assay: Test 26 field trial, postemergence; format: in vivo, Chenopodium album; design: scale not given here
Text: as §1

[2] = test system: Pennsylvania smartweed (POLPY); assay: Test 26 field trial, postemergence; format: in vivo, Polygonum pensylvanicum
Text: as §1

common ragweed (AMBEL) = assay: Test 26 field trial, postemergence; format: in vivo, Ambrosia artemisiifolia; design: scale not given here
Text: as §1

jimsonweed (DATST) = assay: Test 26 field trial, postemergence; format: in vivo, Datura stramonium; details: 28 DAA
Text: as §1

[3] = test system: ivyleaf morningglory (IPOHE); assay: Test 26 field trial, postemergence; format: in vivo, Ipomoea hederacea; design: scale not given here
Text: as §1

kochia (KCHSC) [4] = assay: Test 27 field trial, postemergence; format: in vivo, Kochia scoparia; design: scale not given here; details: thifensulfuron-methyl 10 g a.i./ha
Text: as §2

spring wheat (TRZAS) = assay: Test 4 field trial, postemergence; details: clodinafop 56 or fenoxaprop 90 g a.i./ha alone
Protocol: (§3) A field trial was conducted to evaluate the effects of mixtures of Compound 2 with commercial herbicides on spring wheat (TRZAS, Triticum aestivum L.) and several weed species. Wheat seeds (cv. ‘AC Intrepid’) were planted in late spring season, 3.8 cm deep in a loam soil having 2.7% organic matter and a pH of 7. Plots were 6 m long by 2.5 m wide. The field was managed using no-till practices. The plots were arranged in a randomized complete block design with each treatment being replicated four times. Treatments were applied postemergence 25 days after planting using a backpack sprayer delivering a spray volume of 55 L/ha using a pressure of 276 kPa. […] Compound 2 and clodinafop treatments, alone and in combination, also included a surfactant. Weed species present in the experimental plots in sufficient quantity to be evaluated included wild oat (AVEFA, Avena fatua L.), common lambsquarters (CHEAL, Chenopodium album L.), kochia (KCHSC, Kochia scoparia (L.) Schrad.), wild buckwheat (POLCO, Polygonum convolvulus L.), Russian thistle (SASKR, Salsola kali L. ssp. ruthenica (Iljin) Soo), and field pennycress (THLAR, Thlaspi arvense L.). […] Common lambsquarters was evaluated only at 14 days after application. […] Results are the means of the four replicates.

field pennycress (THLAR) = assay: Test 4 field trial, postemergence; format: in vivo, Thlaspi arvense; design: scale not given here; details: clodinafop 56 or fenoxaprop 90 g a.i./ha alone
Protocol: as §3

wild buckwheat (POLCO) = assay: Test 4 field trial, postemergence; format: in vivo, Polygonum convolvulus; details: clodinafop 56 or fenoxaprop 90 g a.i./ha alone
Protocol: as §3

kochia (KCHSC) [5] = assay: Test 4 field trial, postemergence; format: in vivo, Kochia scoparia; details: clodinafop 56 g a.i./ha alone
Protocol: as §3

[6] = test system: common lambsquarters (CHEAL); assay: Test 4 field trial, postemergence; format: in vivo, Chenopodium album; details: clodinafop 56 or fenoxaprop 90 g a.i./ha alone
Russian thistle (SASKR) = assay: Test 4 field trial, postemergence; format: in vivo, Salsola kali; design: scale not given here; details: clodinafop 56 or fenoxaprop 90 g a.i./ha alone
Protocol: as §3

wild oat (AVEFA) = assay: Test 4 field trial, postemergence; format: in vivo, Avena fatua; design: scale not given here; details: clodinafop 56 or fenoxaprop 90 g a.i./ha alone
Protocol: as §3

COC(=O)c1sccc1S(=O)(=O)NC(=O)Nc1nc(C)nc(OC)n1 [Thifensulfuron-methyl]
AMBTR Obs (giant ragweed (AMBTR); 14 DAA, 2 g a.i./ha): 75 | AMBTR Obs (giant ragweed (AMBTR); 28 DAA, 2 g a.i./ha): 5 | AMBTR Obs (giant ragweed (AMBTR); 28 DAA, 4 g a.i./ha): 5 | TRZAW Obs (winter wheat (TRZAW); 16 days after application): 0 | TRZAW Obs (winter wheat (TRZAW); 28 days after application): 0 | TRZAW Obs (winter wheat (TRZAW); 49 days after application): 0 | ZEAMD Obs (corn (ZEAMD); 14 days after application): 0 | ZEAMD Obs (corn (ZEAMD); 56 days after application): 0 | ABUTH Obs (velvetleaf (ABUTH); 14 DAA, 2 g a.i./ha): 53 | ABUTH Obs (velvetleaf (ABUTH); 14 DAA, 4 g a.i./ha): 60 | ABUTH Obs (velvetleaf (ABUTH); 14 DAA, 8 g a.i./ha): 55 | ABUTH Obs (velvetleaf (ABUTH); 28 DAA, 2 g a.i./ha): 75 | ABUTH Obs (velvetleaf (ABUTH); 28 DAA, 4 g a.i./ha): 79 | ABUTH Obs (velvetleaf (ABUTH); 28 DAA, 8 g a.i./ha): 87 | ABUTH Obs (velvetleaf (ABUTH); 56 DAA, 2 g a.i./ha): 33 | ABUTH Obs (velvetleaf (ABUTH); 56 DAA, 4 g a.i./ha): 30 | ABUTH Obs (velvetleaf (ABUTH); 56 DAA, 8 g a.i./ha): 73 | SETFA Obs (giant foxtail (SETFA); 28 DAA, 2 g a.i./ha): 87 | SETFA Obs (giant foxtail (SETFA); 28 DAA, 4 g a.i./ha): 88 | SETFA Obs (giant foxtail (SETFA); 28 DAA, 8 g a.i./ha): 82 | SETFA Obs (giant foxtail (SETFA); 56 DAA, 2 g a.i./ha): 0 | SETFA Obs (giant foxtail (SETFA); 56 DAA, 4 g a.i./ha): 23 | SETFA Obs (giant foxtail (SETFA); 56 DAA, 8 g a.i./ha): 13 | CHEAL Obs ([1]; 14 DAA, 2 g a.i./ha): 65 | CHEAL Obs ([1]; 14 DAA, 4 g a.i./ha): 83 | CHEAL Obs ([1]; 14 DAA, 8 g a.i./ha): 80 | CHEAL Obs ([1]; 28 DAA, 2 g a.i./ha): 90 | CHEAL Obs ([1]; 28 DAA, 4 g a.i./ha): 93 | CHEAL Obs ([1]; 28 DAA, 8 g a.i./ha): 98 | CHEAL Obs ([1]; 56 DAA, 2 g a.i./ha): 27 | CHEAL Obs ([1]; 56 DAA, 4 g a.i./ha): 50 | CHEAL Obs ([1]; 56 DAA, 8 g a.i./ha): 93 | POLPY Obs ([2]; 14 DAA, 8 g a.i./ha): 0 | POLPY Obs ([2]; 28 DAA, 2 g a.i./ha): 73 | POLPY Obs ([2]; 28 DAA, 4 g a.i./ha): 100 | POLPY Obs ([2]; 28 DAA, 8 g a.i./ha): 100 | AMBEL Obs (common ragweed (AMBEL); 14 DAA, 2 g a.i./ha): 55 | AMBEL Obs (common ragweed (AMBEL); 14 DAA, 4 g a.i./ha): 72 | AMBEL Obs (common ragweed (AMBEL); 14 DAA, 8 g a.i./ha): 76 | AMBEL Obs (common ragweed (AMBEL); 28 DAA, 2 g a.i./ha): 23 | AMBEL Obs (common ragweed (AMBEL); 28 DAA, 4 g a.i./ha): 53 | AMBEL Obs (common ragweed (AMBEL); 28 DAA, 8 g a.i./ha): 43 | AMBEL Obs (common ragweed (AMBEL); 56 DAA, 2 g a.i./ha): 0 | AMBEL Obs (common ragweed (AMBEL); 56 DAA, 4 g a.i./ha): 17 | AMBEL Obs (common ragweed (AMBEL); 56 DAA, 8 g a.i./ha): 25 | DATST Obs (jimsonweed (DATST); 2 g a.i./ha): 40 | DATST Obs (jimsonweed (DATST); 4 g a.i./ha): 87 | DATST Obs (jimsonweed (DATST); 8 g a.i./ha): 83 | IPOHE Obs ([3]; 14 DAA, 2 g a.i./ha): 57 | IPOHE Obs ([3]; 14 DAA, 4 g a.i./ha): 72 | IPOHE Obs ([3]; 14 DAA, 8 g a.i./ha): 73 | IPOHE Obs ([3]; 28 DAA, 2 g a.i./ha): 17 | IPOHE Obs ([3]; 28 DAA, 4 g a.i./ha): 20 | IPOHE Obs ([3]; 28 DAA, 8 g a.i./ha): 45 | IPOHE Obs ([3]; 56 DAA, 2 g a.i./ha): 0 | IPOHE Obs ([3]; 56 DAA, 4 g a.i./ha): 0 | IPOHE Obs ([3]; 56 DAA, 8 g a.i./ha): 20 | KCHSC Obs (kochia (KCHSC) [4]; 16 DAA): 0 | KCHSC Obs (kochia (KCHSC) [4]; 28 DAA): 0 | KCHSC Obs (kochia (KCHSC) [4]; 49 DAA): 0

C[C@@H](Oc1ccc(Oc2ncc(Cl)cc2F)cc1)C(=O)O [Clodinafop]
TRZAS Obs (spring wheat (TRZAS); 14 DAA): 0 | TRZAS Obs (spring wheat (TRZAS); 35 DAA): 0 | TRZAS Obs (spring wheat (TRZAS); 55 DAA): 0 | THLAR Obs (field pennycress (THLAR); 14 DAA): 0 | THLAR Obs (field pennycress (THLAR); 35 DAA): 0 | POLCO Obs (wild buckwheat (POLCO); 14 DAA): 0 | POLCO Obs (wild buckwheat (POLCO); 35 DAA): 0 | KCHSC Obs (kochia (KCHSC) [5]; 14 DAA): 0 | KCHSC Obs (kochia (KCHSC) [5]; 35 DAA): 0 | CHEAL Obs ([6]; 14 DAA): 0 | CHEAL Obs ([6]; 35 DAA): 0 | SASKR Obs (Russian thistle (SASKR); 14 DAA): 0 | SASKR Obs (Russian thistle (SASKR); 35 DAA): 0 | AVEFA Obs (wild oat (AVEFA); 14 DAA): 97 | AVEFA Obs (wild oat (AVEFA); 35 DAA): 99 | AVEFA Obs (wild oat (AVEFA); 55 DAA): 98
